Structures are written as SMILES.

In one experiment the test system is MV-4-11 cells. In words: Cell growth inhibition assay (CellTiter-Glo), MV-4-11. In kind it is cell-based, human. To be noted: MV-4-11, 4 days. The method in brief: (§1)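 Growth of each leukemia line in its own serum-containing medium was measured by CellTiter-Glo ATP luminescence after 4 days at 37 °C with 3-fold serial dilutions starting at 10 μM (0.1% DMSO). Readings were corrected for background and day 0, scaled so that vehicle is 100% and medium-only is −100%, and 4-parameter fits gave IC50 and TGI.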
Background: ATP-based viability assays read luminescence as a measure of living cells.

Another experiment has as its system THP-1 cells. The experiment is described as follows: Cell growth inhibition assay (CellTiter-Glo), THP-1. To be noted: THP-1, 4 days. In kind it is cell-based, human. The essentials:
as §1

The target of another experiment is BRD4-NUT-fusion (Homo sapiens (Human), UniProt O60885+Q86Y26). The experiment is described as follows: Nut-foci formation assay (HCS) in HCC2494 NUT midline carcinoma cells. It counts as cell-based. To be noted: 24 hours, nuclear BRD4-NUT foci, immunofluorescence.

As a reminder, the GI50 is the concentration that inhibits growth by half. In general, IC50 refers to the midpoint of a concentration-inhibition curve. High values mean lower potency, low ones higher potency. `CCOc1ncccc1-n1nc2c(c1C)C(=O)N(c1cc(C)c(=O)n(C)c1)C2c1ccc(Cl)cc1` (centres unmarked) [Example 18b, 6-(4-chlorophenyl)-5-(1,5-dimethyl-6-oxo-1,6-dihydropyridin-3-yl)-2-(2-ethoxypyridin-3-yl)-3-methyl-5,6-dihydropyrrolo[3,4-c]pyrazol-4(2H)-one]: the GI50 was found to be 16.9 nM in the experiment on MV-4-11 cells (Homo sapiens, MV4-11, 96 h, half-maximal growth inhibition) and 44 nM in the experiment with THP-1 cells (Homo sapiens, 96 h, half-maximal growth inhibition). Further, the “MV-4-11 TGI” value in the experiment on MV-4-11 cells (total growth inhibition) was determined as 31.3 nM. For the same compound, the “THP-1 TGI” value in the experiment on THP-1 cells (total growth inhibition) was determined as 93.1 nM. The same compound displayed an IC50 against BRD4-NUT-fusion of 21.7 nM.
